From ChEMBL document CHEMBL3596163, “Discovery of imidazo[1,5-a]pyridines and -pyrimidines as potent and selective RORc inverse agonists” (Bioorg Med Chem Lett, 2015)

Legend:
[1] = molecular target: T1, Peroxisome proliferator-activated receptor gamma (Homo sapiens, UniProt P37231); experiment: Displacement of fluormone PPARgamma green from GST-tagged human PPARgamma-LBD after 2 hrs by fluorescence polarization assay
T1 sequence (P37231 whole entry): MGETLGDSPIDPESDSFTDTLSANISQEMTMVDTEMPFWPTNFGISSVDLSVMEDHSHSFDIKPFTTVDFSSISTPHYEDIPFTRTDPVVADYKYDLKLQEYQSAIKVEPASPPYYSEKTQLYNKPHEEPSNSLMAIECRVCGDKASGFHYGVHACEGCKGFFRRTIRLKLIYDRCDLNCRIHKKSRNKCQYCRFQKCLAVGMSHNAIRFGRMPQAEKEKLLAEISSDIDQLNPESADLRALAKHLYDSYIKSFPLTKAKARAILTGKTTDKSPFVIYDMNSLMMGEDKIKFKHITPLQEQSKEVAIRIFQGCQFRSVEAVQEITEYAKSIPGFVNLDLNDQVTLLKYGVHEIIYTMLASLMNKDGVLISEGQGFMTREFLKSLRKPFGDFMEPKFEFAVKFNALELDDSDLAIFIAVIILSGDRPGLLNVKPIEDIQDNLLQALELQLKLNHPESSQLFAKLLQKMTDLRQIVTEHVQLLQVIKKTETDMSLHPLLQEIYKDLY

[2] = molecular target: T2, Nuclear receptor ROR-gamma (Homo sapiens, UniProt P51449); experiment: Inverse agonist activity at N-terminal 6xHis-tagged human RORc ligand binding domain (241 to 486) expressed in bacterial expression system assessed as inhibition of SRC1 co-activator peptide recruitment after 3 hrs by TR-FRET analysis; assay type: functional
T2 sequence (P51449 whole entry): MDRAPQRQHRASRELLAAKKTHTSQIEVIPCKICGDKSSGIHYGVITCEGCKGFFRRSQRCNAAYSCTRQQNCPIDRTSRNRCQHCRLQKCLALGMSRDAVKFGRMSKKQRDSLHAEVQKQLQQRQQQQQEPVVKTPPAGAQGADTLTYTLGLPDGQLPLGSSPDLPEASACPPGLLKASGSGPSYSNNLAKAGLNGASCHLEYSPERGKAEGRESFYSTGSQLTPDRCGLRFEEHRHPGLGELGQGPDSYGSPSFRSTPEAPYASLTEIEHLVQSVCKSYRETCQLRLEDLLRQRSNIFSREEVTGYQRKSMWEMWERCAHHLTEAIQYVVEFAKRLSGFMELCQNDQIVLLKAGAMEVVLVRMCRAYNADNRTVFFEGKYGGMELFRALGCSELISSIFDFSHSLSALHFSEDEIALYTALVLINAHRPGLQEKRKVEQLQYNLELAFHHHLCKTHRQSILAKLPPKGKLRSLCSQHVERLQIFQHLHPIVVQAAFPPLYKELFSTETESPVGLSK

[3] = Lipophilicity, log D of the compound at pH 7.4; assay type: physicochemical; settings: buffer

SMILES	IC50 [1] [nM]	EC50 [2] [nM]	logD [3]
N#Cc1cccc(C(F)(F)F)c1C(=O)c1nc(-c2ccc(C(=O)O)cc2F)c2n1CCCC2	> 10000	220	0.7
COc1cccc(Cl)c1C(=O)c1nc(-c2ccc(C(=O)O)cc2F)c2n1CCCC2	5500	240	0.8
O=C(O)c1ccc(-n2nc(C(=O)c3c(Cl)cccc3C(F)(F)F)c3c2CCCC3)cc1		> 10000	-0.3
O=C(O)c1ccc(-c2nn(C(=O)c3c(Cl)cccc3C(F)(F)F)c3ccccc23)cc1			2.9
O=C(O)c1ccc(-c2nc(C(=O)c3c(F)cccc3Cl)n3c2CCCC3)c(F)c1	2900	190	1.2
O=C(O)c1ccc(-c2cn3c(n2)C(c2c(Cl)cccc2C(F)(F)F)OCC3)cc1 (centres undefined)		> 10000	
O=C(O)c1ccc(-c2nc(C(=O)c3c(Cl)cccc3Cl)n3c2CCCC3)c(F)c1	1100	77	1.5
O=C(O)c1ccc(-c2nc(C(=O)c3ccccc3C(F)(F)F)n3c2CCCC3)c(F)c1	5600	840	1.4
N#Cc1cccc(Cl)c1C(=O)c1nc(-c2ccc(C(=O)O)cc2F)c2n1CCCC2	7700	250	0.7
COc1cccc(C(F)(F)F)c1C(=O)c1nc(-c2ccc(C(=O)O)cc2F)c2n1CCCC2	9100	670	

The remaining lines, values ahead:

IC50 [1] [nM]	EC50 [2] [nM]	logD [3]	SMILES
	4300	1.8	O=C(c1c(Cl)cccc1C(F)(F)F)c1nc([C@H]2CC[C@@H](C(=O)O)CC2)c2ccccn12
1800	100	1.5	O=C(c1c(Cl)cccc1C(F)(F)F)c1nc(C2=CCC(C(=O)O)CC2)c2ccccn12 (centres undefined)
> 10000	540	0.4	O=C(c1c(Cl)cccc1C(F)(F)F)c1nc(N2CCC(C(=O)O)CC2)c2ccccn12
	400	1.3	O=C(c1c(Cl)cccc1C(F)(F)F)c1nc([C@H]2CC[C@H](C(=O)O)CC2)c2ccccn12
2100	58	0.8	O=C(O)c1ccc(-c2nc(C(=O)c3c(Cl)cccc3C(F)(F)F)n3c2CCCC3)cc1
> 10000	97	0.4	O=C(c1c(Cl)cccc1C(F)(F)F)c1nc(N2CC[C@@H](C(=O)O)[C@H](O)C2)c2ccccn12 (stereo in doubt)
	2600	0.7	O=C(O)c1ccc(-c2nc(C(=O)c3c(Cl)cccc3C(F)(F)F)n3ccncc23)cc1
> 10000	440	0.3	O=C(c1c(Cl)cccc1C(F)(F)F)c1nc(N2CC[C@H](C(=O)O)[C@@H](O)C2)c2ccccn12 (stereo in doubt)
	6800		O=C(c1c(Cl)cccc1C(F)(F)F)c1nc(N2CCC(O)(C(=O)O)CC2)c2ccccn12
4200	84	0.3	O=C(O)c1ccc(-c2nc(C(=O)c3c(Cl)cccc3C(F)(F)F)n3cccnc23)cc1
